Consider ten molecules from PMC10302582, “Unveiling the Potential of BenzylethyleneAryl–Urea Scaffolds for the Design of New Onco Immunomodulating Agents” (Pharmaceuticals, 2023).

Data set [1] relates to HT-29 (colon adenocarcinoma). Nature of the data set: MTT cell proliferation assay, HT-29. To be noted: Homo sapiens, HT-29; MTT, 48 h treatment; read-out: IC50 HT-29. The class given is cell-based. As for the experimental part:
(§1) After the supernatant was discarded, we solved the formazan crystal in 100 µL of DMSO. The absorbance was then registered at 550 nm using a plate lector. For all concentrations of any compound, cell viability was expressed as the percentage of the ratio between the mean absorbance of the treated cells and the mean absorbance of the untreated cells. Three to five experiments were performed to establish the IC50 values (i.e., concentration half inhibiting cell proliferation, we used GraphPad Prism 7 software).

In data set [2] the test system is Jurkat T-cells. Description: MTT cell proliferation assay, Jurkat T-cells. Type of data set: cell-based. Particulars: 48 h treatment. As for the experimental part:
(§2) The action on cell proliferation caused by our developed compounds was studied using an MTT assay using the human tumor cell lines of HT-29 (colon adenocarcinoma) and A-549 (pulmonary adenocarcinoma), as well as toward the non-tumor cell line HEK-293 (human embryonic kidney cells), Jurkat T-cells and human microvessel endothelial cells (HMEC-1).
(§3) In general, 5 × 10^3 (HT-29, A549, HMEC-1, Jurkat and HEK-293) cells per well were seeded in 96-well plates with 1:1 dilutions of the compounds in a volume of 100 μL of the cell media. The 3-(4,5-dimethylthiazol-2-yl)-2,5-diphenyltetrazolium bromide (MTT; Sigma Chemical Co.) dye exclusion assay was performed, and after 48 h (37 °C, 5% CO2 in a humid atmosphere), 10 μL of MTT (5 mg/mL in phosphate-buffered saline, PBS) was added to each well and incubated for 3 h at 37 °C. After the supernatant was discarded, we solved the formazan crystal in 100 µL of DMSO. The absorbance was then registered at 550 nm using a plate lector. For all concentrations of any compound, cell viability was expressed as the percentage of the ratio between the mean absorbance of the treated cells and the mean absorbance of the untreated cells. Three to five experiments were performed to establish the IC50 values (i.e., concentration half inhibiting cell proliferation, we used GraphPad Prism 7 software).
(In general: Tetrazolium assays rely on reduction of a dye to a coloured formazan, in cell work by metabolically active cells.)

Data set [3] concerns HEK-293 (human embryonic kidney cells). Description: MTT cell proliferation assay, HEK-293. Particulars: HEK293, 48 h treatment. The class given is cell-based. As for the experimental part: as §2, §3
For data set [4], the system named is human microvessel endothelial cells (HMEC-1). Nature of the data set: MTT cell proliferation assay, HMEC-1. The class given is cell-based. Particulars: 48 h treatment. As for the experimental part:
as §2, §3

In data set [5] the test system is A-549 (pulmonary adenocarcinoma). Description: MTT cell proliferation assay, A-549. Particulars: Homo sapiens, A549; MTT, 48 h treatment; read-out: IC50 A-549. Type of data set: cell-based. As for the experimental part:
as §1

A word on the IC50: it is the concentration that gives 50% inhibition. A word on the melting point: it is the temperature of the solid-liquid transition.

The molecule `COc1ccc(CCCc2cccc(NC(=O)Nc3ccccc3)c2)cc1` [C.2] displayed a melting point of 157 to 159 °C. Besides, the concentration for half-maximal inhibition (IC50) in data set [1] was determined as 25 ± 5 µM. In addition, the IC50 in data set [2] (Homo sapiens, Jurkat, 48 h) was greater than 100 µM. In data set [3], this molecule came in with an IC50 of 12 ± 1 µM. The molecule further came in with a half-inhibitory concentration (IC50) in data set [4] (Homo sapiens, HMEC-1, 48 h) greater than 100 µM. Besides, in data set [5], the IC50 was greater than 100 µM.
Take `COc1ccc(CCCc2cccc(NC(=O)Nc3cccc(F)c3)c2)cc1` [C.4]: the melting point amounted to 154 °C. Further, in data set [1], the 50% inhibitory concentration (IC50) is greater than 100 µM. This molecule registered an IC50 in data set [2] (Homo sapiens, Jurkat, 48 h) greater than 100 µM. In data set [3], the IC50 came out at 22 ± 5 µM. The same molecule displayed an IC50 in data set [4] (Homo sapiens, HMEC-1, 48 h) greater than 100 µM. Further, the IC50 in data set [5] is greater than 100 µM.
With `COc1ccc(CCCc2cccc(NC(=O)Nc3ccccc3F)c2)cc1` [C.5], the melting point amounted to 152 °C. Besides, in data set [1], the IC50 came to 58 ± 16 µM. In addition, the IC50 in data set [2] (Homo sapiens, Jurkat, 48 h) was greater than 100 µM. In data set [3], this molecule returned an IC50 of 24 ± 4 µM. The molecule further registered a 50% inhibitory concentration (IC50) in data set [4] (Homo sapiens, HMEC-1, 48 h) greater than 100 µM. Moreover, the IC50 in data set [5] amounted to 29 ± 5 µM.
`COc1ccc(CCCc2cccc(NC(=O)Nc3ccc(Cl)cc3)c2)cc1` [C.6] gave a melting point of 179 to 182 °C. The IC50 in data set [1] was determined as 4 ± 1 µM. In data set [2] (Homo sapiens, Jurkat, 48 h), the IC50 is greater than 100 µM. Besides, the IC50 in data set [3] was 4 ± 1 µM. Moreover, the IC50 in data set [4] (Homo sapiens, HMEC-1, 48 h) was greater than 100 µM. In addition, the concentration for half-maximal inhibition (IC50) in data set [5] worked out at 20 ± 10 µM.
`COc1ccc(CCCc2cccc(NC(=O)Nc3cccc(Cl)c3)c2)cc1` [C.7] returned a melting point of 143 to 147 °C. Also, in data set [1], the concentration for half-maximal inhibition (IC50) is 14 ± 3 µM. The molecule further had an IC50 in data set [2] of 17 ± 1 µM. Besides, the IC50 in data set [2] (Homo sapiens, Jurkat, 48 h) is roughly 20 µM. Moreover, inhibition in data set [3] was half-maximal at 14 ± 3 µM (IC50). In data set [4], 18 ± 8 µM corresponded to half-maximal inhibition (IC50). Also, in data set [4] (Homo sapiens, HMEC-1, 48 h), the IC50 was roughly 20 µM. Moreover, the IC50 in data set [5] came out at 19 ± 1 µM.
Regarding `COc1ccc(CCCc2cccc(NC(=O)Nc3ccccc3Cl)c2)cc1` [C.8], the melting point was 134 to 136 °C. Besides, in data set [1], the IC50 is 47 ± 2 µM. Also, in data set [2] (Homo sapiens, Jurkat, 48 h), the 50% inhibitory concentration (IC50) is greater than 100 µM. In data set [3], this molecule came in with a concentration for half-maximal inhibition (IC50) of 37 ± 8 µM. The IC50 in data set [4] (Homo sapiens, HMEC-1, 48 h) is greater than 100 µM. Further, in data set [5], the IC50 is greater than 100 µM.
Regarding `COc1ccc(CCCc2cccc(NC(=O)Nc3ccc(Br)cc3)c2)cc1` [C.9], the IC50 in data set [1] is 1.9 ± 0.6 µM; in data set [2] (Homo sapiens, Jurkat, 48 h), greater than 100 µM; in data set [3], 2.1 ± 0.2 µM; in data set [4] (Homo sapiens, HMEC-1, 48 h), greater than 100 µM; in data set [5] it was 7 ± 1 µM.
In turn, `COc1ccc(CCCc2cccc(NC(=O)Nc3cccc(Br)c3)c2)cc1` [C.10] had a melting point of 141 to 144 °C. In data set [1], the half-maximal inhibitory concentration (IC50) was found to be 11 ± 2 µM. Moreover, the IC50 in data set [2] turned out to be 18 ± 7 µM. Moreover, the 50% inhibitory concentration (IC50) in data set [2] (Homo sapiens, Jurkat, 48 h) was roughly 20 µM. In addition, the IC50 in data set [3] was 9 ± 4 µM. Moreover, the IC50 in data set [4] amounted to 17 ± 7 µM. The IC50 in data set [4] (Homo sapiens, HMEC-1, 48 h) is roughly 20 µM. The half-maximal inhibitory concentration (IC50) in data set [5] amounted to 8 ± 2 µM.
For the molecule `COc1ccc(CCCc2cccc(NC(=O)Nc3ccccc3Br)c2)cc1` [C.11], the melting point was in the range of 137 to 140 °C. The concentration for half-maximal inhibition (IC50) in data set [1] worked out at 15 ± 4 µM. For the same molecule, the IC50 in data set [2] came out at 26 ± 18 µM. In data set [2] (Homo sapiens, Jurkat, 48 h), this molecule came in with an IC50 of roughly 20 µM. The molecule also came in with an IC50 in data set [3] of 27 ± 4 µM. Further, inhibition in data set [4] was half-maximal at 25 ± 1 µM (IC50). Further, in data set [4] (Homo sapiens, HMEC-1, 48 h), the IC50 is roughly 20 µM. Besides, the IC50 in data set [5] is 20 ± 5 µM.
The molecule `COc1ccc(CCCc2cccc(NC(=O)Nc3cccc(OC)c3)c2)cc1` [C.13] returned a melting point of 107 to 110 °C. The IC50 in data set [1] was determined as 8 ± 5 µM. In data set [2], this molecule displayed a concentration for half-maximal inhibition (IC50) of 24 ± 4 µM. In data set [2] (Homo sapiens, Jurkat, 48 h), the IC50 is roughly 20 µM. In data set [3], this molecule registered a 50% inhibitory concentration (IC50) of 15 ± 3 µM. Also, the IC50 in data set [4] (Homo sapiens, HMEC-1, 48 h) is roughly 20 µM. Moreover, the IC50 in data set [5] is 18 ± 5 µM.
